Where two headings read alike, the source gives them in different places.
What was measured:
erbB-2, 3, 4 = assay: Inhibition of conditioned media-induced autophosphorylation in SK-BR-3 breast tumor cells; type: cell-based, human; details: SK-BR-3 cells, read-out: SKBR-3 IC50
Method: (§1) Cells were grown to 100% confluency in 100 mm Petrie dishes (Corning). After the cells were treated for 5 minutes with either EGF (epidermal growth factor), PDGF, or bFGF (basic fibroblast growth factor) (20 ng/ml) or 1 ml of conditioned media from MDA-MB-231 cells, the media was removed and the monolayer scraped into 1 ml of ice cold lysis buffer (50 mM Hepes, pH 7.5, 150 mM NaCl, 10% glycerol, 1% triton X-100, 1 mM EDTA, 1 mM EGTA, 10 mM sodium pyrophosphate, 30 mM p-nitrophenyl phosphate, 1 mM orthovanadate, 50 mM sodium fluoride, 1 mM phenylmethylsulfonylfluoride, 10 μg/ml of aprotinin, and 10 μg/ml of leupeptin). The lysate was transferred to a microfuge tube (small centrifuge that holds 1-2 ml plastic centrifuge tubes), allowed to sit on ice 15 minutes and centrifuged 5 minutes at 10,000×g. The supernatant was transferred to a clean microfuge tube and 5 μg of antibody was added to designated samples. The tubes were rotated for 2 hours at […] after which 25 μl of protein A sepharose was added and then rotation continued for at least 2 more hours. The protein A separose was washed 5 times with 50 mM Hepes, pH 7.5, 150 mM NaCl, 10% glycerol and 0.02% sodium azide. […] The extract were transferred to a microfuge tube and heated to 100° C. for 5 minutes. […] Proteins in the gel were electrophoretically transferred to nitrocellulose and the membrane was washed once in 10 mM Tris buffer, pH 7.2, 150 mM NaCl, 0.01% Azide (TNA) and blocked overnight in TNA containing 5% bovine serum albumin and 1% ovalbumin (blocking buffer). The membrane was blotted for 2 hours with the primary antibody (1 μg/ml in blocking buffer) and then washed 2 times sequentially in TNA, TNA containing 0.05% Tween-20 and 0.05% Nonidet P-40 (commercially available detergent) and TNA.

[1] = target: T1, Human EGF receptor tyrosine kinase (Homo sapiens, UniProt P00533); assay: EGF receptor tyrosine kinase inhibition (phosphorylation of PLC-gamma 1 derived peptide); type: biochemical
T1 construct: isolated from A431 human epidermoid carcinoma cells which overexpress EGF receptor; endogenous in cells; host or cells: A431 human epidermoid carcinoma cells; purified from the lysate on wheat germ agglutinin sepharose
Method: Purification of Epidermal Growth Factor Receptor Tyrosine Kinase—Human EGF receptor tyrosine kinase was isolated from A431 human epidermoid carcinoma cells which overexpress EGF receptor by the following methods. Cells were grown in roller bottles in 50% Delbuco's Modified Eagle and 50% HAM F-12 nutrient media (Gibco) containing 10% fetal calf serum. Approximately 10^9 cells were lysed in two volumes of buffer containing 20 mM 2-(4N-[2-hydroxyethyl]piperazin-1-yl)ethanesulfonic acid (hepes), pH 7.4, 5 mM ethylene glycol bis(2-aminoethyl ether) N,N,N′,N′-tetraacetic acid, 1% Triton X-100, 10% glycerol, 0.1 mM sodium orthovanadate, 5 mM sodium fluoride, 4 mM pyrophosphate, 4 mM benzamide, 1 mM dithiothreitol, 80 μg/mL aprotinin, 40 μg/mL leupeptin and 1 mM phenylmethylsulfonyl fluoride. After centrifugation at 25,000×g for 10 minutes, the supernatant was equilibrated for 2 h at 4° C. with 10 mL of wheat germ agglutinin sepharose that was previously equilibrated with 50 mM Hepes, […], 0.1% Triton X-100 and 150 mM NaCl, pH 7.5, (equilibration buffer). Contaminating proteins were washed from the resin with 1 M NaCl in equilibration buffer, and the enzyme was eluted with 0.5 M N-acetyl-1-D-glucosamine in equilibration buffer, followed by 1 mM urea. The enzyme was eluted with 0.1 mg/ml EGF.
The reaction was terminated by the addition of 2 mL of […] phosphoric acid and passed through a 2.5 cm phosphocellulose filter disc to bind the peptide. The filter was washed five times with 75 mM phosphoric acid and placed in a vial along with 5 mL of scintillation fluid (Ready gel Beckman).

EGF receptor = target: T2, EGF receptor (Homo sapiens, UniProt P00533); assay: Inhibition of EGF-induced autophosphorylation in A431 epidermoid carcinoma cells; type: cell-based
T2 construct: EGF receptor autophosphorylation in A431 human epidermoid carcinoma; endogenous in cells; host or cells: A431 human epidermoid carcinoma cells (ATCC)
Method: as §1

[2] = tested on: NIH 3T3 mouse fibroblast line, transfected with the human EGFR gene; assay: Morphology of EGF-treated NIH 3T3 fibroblasts transfected with the human EGFR gene; type: cell-based; details: 100 ng/mL of EGF and 5 μm of compound (FIG. 17)
Method: FIG. 15 is a photograph of an NIH 3T3 mouse fibroblast line, transfected with the human EGFR gene showing a normal flattened morphology;
FIG. 16 is a photograph of the same cell line treated with 100 ng/mL of EGF showing a typical spindly transformed morphology; and […]

p39^c-jun = assay: Growth factor mediated expression of p39 c-jun in Swiss 3T3 (Western blot); type: cell-based, mouse
Method: Monoclonal antibodies raised to the PDGF ([…]) receptor or phosphotyrosine were from Upstate Biotechnology, Inc., Lake Placid, N.Y. Anti-pp39^jun (antibody to the transcription factor c-jun, which is a 39 kDalton phosphoprotein) and anti-EGF receptor antibodies were from Oncogene Science, Uniondale, N.Y.
Cells were grown to 100% confluency in 100 mm Petrie dishes (Corning). After the cells were treated for 5 minutes with either EGF (epidermal growth factor), PDGF, or bFGF (basic fibroblast growth factor) (20 ng/ml) or 1 ml of conditioned media from MDA-MB-231 cells, the media was removed and the monolayer scraped into 1 ml of ice cold lysis buffer (50 mM Hepes, pH 7.5, 150 mM NaCl, 10% glycerol, 1% triton X-100, 1 mM EDTA, 1 mM EGTA, 10 mM sodium pyrophosphate, 30 mM p-nitrophenyl phosphate, 1 mM orthovanadate, 50 mM sodium fluoride, 1 mM phenylmethylsulfonylfluoride, 10 μg/ml of aprotinin, and 10 μg/ml of leupeptin). The lysate was transferred to a microfuge tube (small centrifuge that holds 1-2 ml plastic centrifuge tubes), allowed to sit on ice 15 minutes and centrifuged 5 minutes at 10,000×g. The supernatant was transferred to a clean microfuge tube and 5 μg of antibody was added to designated samples. The tubes were rotated for 2 hours at […] after which 25 μl of protein A sepharose was added and then rotation continued for at least 2 more hours. The protein A separose was washed 5 times with 50 mM Hepes, pH 7.5, 150 mM NaCl, 10% glycerol and 0.02% sodium azide. The precipitates were resuspended with 30 μl of Laemlli buffer (Laemmli, […], pp. 680-685, 1970), heated to 100° C. for 5 minutes and centrifuged to obtain the supernatant. Whole cell extracts were made by scraping cells grown in the wells of 6 well plates into 0.2 ml of boiling Laemmli buffer. The extract were transferred to a microfuge tube and heated to 100° C. for 5 minutes. […]

c-jun mRNA = assay: Growth factor dependent expression of c-jun mRNA in Swiss 3T3 (Northern blot); type: cell-based, mouse; details: Swiss 3T3 cells, EGF-stimulated (FIG. 7)
Method: Total cellular RNA was isolated from untreated control or treated Swiss 3T3 cells using RNAzol-B (trademark of Tel Test Inc. for a kit used to isolate RNA from tissues) and adhered to the protocol described by the manufacturer. Forty to fifty μg of RNA was loaded onto a 1% agarose gel and electrophoresis carried out for 3-4 hours at 65 volts. The RNA in the gel was transferred by capillary action to a nylon membrane (Hybond-N, Amersham). The 40 mer c-jun probe was end labeled with [^32p]ATP using […] (Promega) and purified on a G25 sephadex column according to the procedure recommended by the supplier, Oncogene Science. Hybridization was performed overnight at 65° C. (c-jun is an immediate early transcription factor; it is one of the components of AP-1 while FOS is the second component of AP-1.
Gel of Example 40 (FIG. 7) detects mRNA-for c-jun by hybridization with a specific radiolabelled RNA probe for c-jun.

[3] = Table 1, values in nM, read-out: EGF Receptor Tyrosine Kinase Inhibition IC50

T1 sequence (P00533 25-1210): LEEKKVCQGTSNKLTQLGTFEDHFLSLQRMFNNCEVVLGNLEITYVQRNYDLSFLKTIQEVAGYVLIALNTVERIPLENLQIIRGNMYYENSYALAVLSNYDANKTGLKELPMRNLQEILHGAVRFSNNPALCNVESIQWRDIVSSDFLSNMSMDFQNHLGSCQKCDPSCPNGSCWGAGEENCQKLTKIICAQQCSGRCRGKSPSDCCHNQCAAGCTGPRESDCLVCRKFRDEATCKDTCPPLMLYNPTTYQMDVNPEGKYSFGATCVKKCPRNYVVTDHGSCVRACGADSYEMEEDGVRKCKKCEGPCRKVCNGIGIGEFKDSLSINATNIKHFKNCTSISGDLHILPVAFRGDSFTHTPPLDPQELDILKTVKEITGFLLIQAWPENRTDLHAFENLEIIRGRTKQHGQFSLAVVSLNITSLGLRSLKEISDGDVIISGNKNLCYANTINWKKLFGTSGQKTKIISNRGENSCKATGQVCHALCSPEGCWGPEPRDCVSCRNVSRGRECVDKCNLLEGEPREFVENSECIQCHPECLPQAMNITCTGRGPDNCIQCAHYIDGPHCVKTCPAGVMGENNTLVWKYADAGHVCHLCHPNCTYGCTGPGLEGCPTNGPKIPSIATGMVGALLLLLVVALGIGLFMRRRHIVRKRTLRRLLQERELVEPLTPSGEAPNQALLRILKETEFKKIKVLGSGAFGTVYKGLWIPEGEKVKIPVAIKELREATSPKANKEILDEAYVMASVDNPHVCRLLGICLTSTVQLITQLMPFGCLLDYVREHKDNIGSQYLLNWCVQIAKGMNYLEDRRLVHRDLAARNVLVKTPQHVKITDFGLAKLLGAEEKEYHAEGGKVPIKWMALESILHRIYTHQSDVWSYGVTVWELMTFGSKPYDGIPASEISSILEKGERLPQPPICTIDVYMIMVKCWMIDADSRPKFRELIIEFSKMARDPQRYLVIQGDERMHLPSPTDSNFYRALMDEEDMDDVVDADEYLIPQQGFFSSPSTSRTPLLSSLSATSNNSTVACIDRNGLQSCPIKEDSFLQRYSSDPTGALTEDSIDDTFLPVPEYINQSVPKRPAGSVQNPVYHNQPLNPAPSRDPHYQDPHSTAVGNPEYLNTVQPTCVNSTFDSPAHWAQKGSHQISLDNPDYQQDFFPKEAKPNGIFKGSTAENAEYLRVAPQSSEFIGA
T2 sequence (P00533 25-1210): as above

Structure (SMILES) | IC50 (erbB-2, 3, 4) [nM] | IC50 [1, 3] [nM] | IC50 ([1]; enzyme value repeated in the autophosphorylation table, read-out: EGFR IC50) [nM] | IC50 (EGF receptor) [nM] | cell morphology [2] | c-jun expression (p39 c-jun protein) (p39^c-jun; Swiss 3T3, stimulated by EGF (FIG. 8)) | c-jun expression (p39 c-jun protein) (p39^c-jun; Swiss 3T3, stimulated by PDGF (FIG. 8)) | c-jun expression (p39 c-jun protein) (p39^c-jun; Swiss 3T3, stimulated by b-FGF (FIG. 8)) | c-jun mRNA production (c-jun mRNA)
Nc1cc2ncnc(Nc3cccc(Br)c3)c2cn1 [Example 27, 7-Amino-4-(3-bromoanilino)pyrido[4,3-d]pyrimidine] | ~800 | 10 | 10 | 110 | morphology reverted from the transformed type back to the normal type |  |  |  | 
Nc1cc2ncnc(NCc3ccccc3)c2cn1 [Example 40, 7-Amino-4-benzylaminopyrido[4 3-d]pyrimidine] |  | 578 |  |  |  | block c-jun expression | not when stimulated by PDGF or b-FGF | not when stimulated by PDGF or b-FGF | blocks this production for EGF-stimulated cells

From patent publication US6521620B1, “Bicyclic compounds capable of inhibiting tyrosine kinases of the epidermal growth factor receptor family” (Warner-Lambert Company, priority 1994, dated 2003)
